In patent publication US6747027B1, “Thiol sulfonamide metalloprotease inhibitors” (Pharmacia Corporation, priority 1996, dated 2004) one finds IC50 data, which are given here for 45 molecules.

By IC50 is commonly meant the midpoint of a concentration-inhibition curve.

One assay has as its target T1, recombinant human MMP-1 (Homo sapiens, UniProt P03956).
T1 construct: made in house; host or cells: transfected HT-1080 cells (provided by Dr. Howard Welgus, Washington University)
T1 sequence (P03956 100-469): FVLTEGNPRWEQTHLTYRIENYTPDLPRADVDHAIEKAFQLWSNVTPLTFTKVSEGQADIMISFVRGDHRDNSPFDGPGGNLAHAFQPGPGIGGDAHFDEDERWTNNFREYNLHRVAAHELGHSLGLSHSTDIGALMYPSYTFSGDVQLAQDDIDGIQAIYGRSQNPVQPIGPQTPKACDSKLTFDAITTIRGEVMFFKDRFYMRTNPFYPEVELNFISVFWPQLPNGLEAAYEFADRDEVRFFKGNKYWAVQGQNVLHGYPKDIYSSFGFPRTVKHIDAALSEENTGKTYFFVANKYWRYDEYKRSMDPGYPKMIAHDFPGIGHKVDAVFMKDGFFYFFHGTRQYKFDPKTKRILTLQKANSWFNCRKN
Kind of assay: In vitro metalloprotease inhibition, fluorogenic peptide assay (MMP-1). It is filed as biochemical. The conditions noted are these: recombinant human MMP-1, APMA activated; fluorogenic MCA peptide substrate 4 uM; pH 7.5, room temperature. As to the method: (§1) Certain of the compounds prepared in the manner described in Examples 1 to 223 were tested for activity by an in vitro assay. Following the procedures of Knight et al., FEBS Lett. 296(3):263 (1992). Briefly, 4-aminophenylmercuric acetate (APMA) or trypsin activated MMPs were incubated with various concentrations of the inhibitor compound at room temperature for 5 minutes (0.02% 2-mercapto-ethanol added to buffer for thiol compounds with 5 minutes or overnight incubation). More specifically, recombinant human MMP-13 and MMP-1 enzymes were prepared in laboratories of the inventors' employer. MMP-13 was expressed in baculovirus as a proenzyme, and purified first over a heparin agarose column and then over a chelating zinc chloride column. The proenzyme was activated by APMA for use in the assay. MMP-1 expressed in transfected HT-1080 was provided by Dr. Howard Welgus of Washington University, St. Louis, Mo. The enzyme was also activated using APMA and was then purified over a hydroxamic acid column.
(§2) The enzyme substrate is a methoxycoumarin-containing polypeptide having the following sequence:
(§3) MCA-ProLeuGlyLeuDpaAlaArgNH^2, wherein MCA is methoxycoumarin and Dpa is 3-(2,4-dinitrophenyl)-L-2,3-diaminopropionyl alanine. This substrate is commercially available from Baychem as product M-1895.
(§4) The buffer used for assays contained 100 mM Tris-HCl, 100 mM NaCl, 10 mM CaCl2 and 0.05 percent polyethyleneglycol(23) lauryl ether at a pH value of 7.5. Assays were carried out at room temperature, and dimethyl sulfoxide (DMSO) at a final concentration of 1 percent was used to dissolve inhibitor compound.
(§5) The assayed inhibitor compound in DMSO/buffer solution was compared to an equal amount of DMSO/buffer with no inhibitor as control using microfluor™ white plates (Dynatech). The inhibitor or control solution was maintained in the plate for 10 minutes and the substrate was added to provide a final concentration of 4 uM.
(§6) In the absence of inhibitor activity, a fluorogenic peptide is cleaved at the gly-leu peptide bond, separating the highly fluorogenic peptide from a 2.4-dinitrophenyl quencher, resulting in an increase of fluorescence intensity (excitation at 328 nm/emmision at 415 nm). Inhibition was measured as a reduction in fluorescent intensity as a function of inhibitor concentration, using a Perkin Elmer L550 plate reader. The IC50 values were calculated from those values. The results are set forth in the Inhibition Table below, reported in terms of IC50 to three significant figures.
As to `COc1ccc(S(=O)(=O)N(Cc2ccccc2)C(CS)CC(C)C)cc1` (racemic) [Example 29F, N-[1-(Mercaptomethyl)-3-methylbutyl]-N-(phenylmethyl)-4-methoxybenzenesulfonamide], the IC50 stood at 8 µM. The same measure, in the same setting: to `COc1ccc(S(=O)(=O)N(Cc2ccccc2)[C@H](C)CS)cc1` (racemic) [Example 56, N-(2-Mercapto-1R,S-methylethyl)-N-phenylmethyl-4-methoxybenzenesulfonamide benzenesulfonamide] belongs 2 µM; to `COc1ccc(S(=O)(=O)N(CCS)Cc2ccccc2)cc1` [Example 7C, N-(2-Mercaptoethyl)-N-(phenylmethyl)-4-methoxybenzenesulfonamide], 4 µM; to `CCCCCN(CCS)S(=O)(=O)c1ccc(OC)cc1` [Example 8, N-(2-Mercaptoethyl)-N-pentyl-4-methoxybenzenesulfonamide], 4.2 µM. Same read-out and setting: to `COc1ccc(S(=O)(=O)N(C)[C@H](C)CS)cc1` [Example 11D, N-(2-Mercapto-1R-methylethyl)-N-methyl-4-methoxybenzenesulfonamide] belongs 0.3 µM; to `COc1ccc(S(=O)(=O)N(Cc2ccccc2)[C@H](C)CS)cc1` [Example 12C, N-(2-Mercapto-1R-methylethyl)-N-(phenylmethyl)-4-methoxybenzenesulfonamide], 1.3 µM.

The target in a further assay is T2, recombinant human MMP-13 (Homo sapiens, UniProt P45452).
T2 construct: made in house
The assay can be described thus: In vitro metalloprotease inhibition, fluorogenic peptide assay (MMP-13). It is filed as biochemical. The conditions noted are these: recombinant human MMP-13, APMA activated; fluorogenic MCA peptide substrate 4 uM; pH 7.5, room temperature. As to the method: as §1, §2, §3, §4, §5, §6
Turning to `COc1ccc(S(=O)(=O)N(Cc2ccccc2)C(CS)CC(C)C)cc1` (racemic) [Example 29F, N-[1-(Mercaptomethyl)-3-methylbutyl]-N-(phenylmethyl)-4-methoxybenzenesulfonamide], the 50% inhibitory concentration (IC50) is 1.8 µM.

In the case of `COc1ccc(S(=O)(=O)N(Cc2ccccc2)[C@H](C)CS)cc1` (racemic) [Example 56, N-(2-Mercapto-1R,S-methylethyl)-N-phenylmethyl-4-methoxybenzenesulfonamide benzenesulfonamide], the IC50 was 0.0675 µM. On the same count and under the same terms, to `C[C@H](CS)NS(=O)(=O)c1ccccc1` (single isomer, unassigned) [Example 151] belongs more than 10 µM. `COc1ccc(S(=O)(=O)N(CCS)Cc2ccccc2)cc1` [Example 7C, N-(2-Mercaptoethyl)-N-(phenylmethyl)-4-methoxybenzenesulfonamide]: the IC50 worked out at 0.3 µM. On the same count and under the same terms, with `CCCCCN(CCS)S(=O)(=O)c1ccc(OC)cc1` [Example 8, N-(2-Mercaptoethyl)-N-pentyl-4-methoxybenzenesulfonamide] the figure was 0.065 µM.

For `COc1ccc(S(=O)(=O)N(Cc2ccccc2)CC(C)S)cc1` (stereo not drawn) [Example 10], the IC50 came to 0.55 µM. Regarding `COc1ccc(S(=O)(=O)N(C)[C@H](C)CS)cc1` [Example 11D, N-(2-Mercapto-1R-methylethyl)-N-methyl-4-methoxybenzenesulfonamide], the IC50 worked out at 0.0325 µM. Same read-out and setting: with `COc1ccc(S(=O)(=O)N(Cc2ccccc2)[C@H](C)CS)cc1` [Example 12C, N-(2-Mercapto-1R-methylethyl)-N-(phenylmethyl)-4-methoxybenzenesulfonamide] the figure was 0.0385 µM.

`C[C@H](CS)NS(=O)(=O)c1ccc(Cl)cc1` [Example 64, N-(2-mercapto-1R-methylethyl)-4-chlorobenzenesulfonamide]: the IC50 was 0.9 µM. On to `C[C@H](CS)NS(=O)(=O)c1ccc(I)cc1` [Example 66, N-(2-mercapto-1R-methylethyl)-4-iodobenzenesulfonamide], for which the IC50 came out at 0.038 µM. Same read-out and setting: with `CCc1ccc(S(=O)(=O)N[C@H](C)CS)cc1` [Example 67, N-(2-mercapto-1R-methylethyl)-4-ethylbenzenesulfonamide] the figure was 0.57 µM; with `CC(C)c1ccc(S(=O)(=O)N[C@H](C)CS)cc1` [Example 72, N-(2-mercapto-1R-methylethyl)-4-isopropylbenzenesulfonamide], 2.3 µM; with `C[C@H](CS)NS(=O)(=O)c1ccc(C(F)(F)F)cc1` [Example 73, N-(2-mercapto-1R-methylethyl)-4-(trifluoromethyl)-benzenesulfonamide], 2.1 µM.

With `C[C@H](CS)NS(=O)(=O)c1ccc(C(C)(C)C)cc1` [Example 74, N-(2-mercapto-1R-methylethyl)-4-(t-butyl)benzenesulfonamide], the IC50 was more than 10 µM. On the same count and under the same terms, with `Cc1cc(C)c(S(=O)(=O)N[C@H](C)CS)c(C)c1` [Example 79, N-(2-mercapto-1R-methylethyl)-2,4,6-trimethyl-benzenesulfonamide] the figure was more than 10 µM; with `CC(C)c1cc(C(C)C)c(S(=O)(=O)N[C@H](C)CS)c(C(C)C)c1` [Example 80, N-(2-mercapto-1R-methylethyl)-2,4,6-triisopropyl-benzenesulfonamide], more than 10 µM. The same measure, in the same setting: to `C[C@H](CS)NS(=O)(=O)c1ccc(F)c(F)c1` [Example 81, N-(2-mercapto-1R-methylethyl)-3,4-difluoro-benzenesulfonamide] belongs 6.5 µM. Turning to `C[C@H](CS)NS(=O)(=O)c1ccc(Br)s1` [Example 85, N-(2-mercapto-1R-methylethyl)-5-bromo-2-thiophenesulfonamide], the IC50 amounted to 9 µM. The same measure, in the same setting: to `C[C@H](CS)NS(=O)(=O)c1ccc(Cl)s1` [Example 86, N-(2-mercapto-1R-methylethyl)-5-chloro-2-thiophenesulfonamide] belongs 1.7 µM. On to `C[C@H](CS)NS(=O)(=O)c1sc(Br)cc1Br` [Example 87, N-(2-mercapto-1R-methylethyl)-3,5-dibromo-2-thiophenesulfonamide], for which the IC50 amounted to 8.5 µM. On the same count and under the same terms, to `C[C@H](CS)NS(=O)(=O)c1ccc(-c2ccon2)s1` [Example 88, N-(2-mercapto-1R-methylethyl)-5-(isoxazol-3-yl)-2-thiophenesulfonamide] belongs 0.365 µM; to `C[C@H](CS)NS(=O)(=O)c1ccc2oc3ccccc3c2c1` [Example 90, N-(2-mercapto-1R-methylethyl)-2-dibenzofuransulfonamide], 0.6 µM; to `COc1ccc(S(=O)(=O)N(CCCS)Cc2ccccc2)cc1` [Example 97], 4 µM. On the same count and under the same terms, with `COc1ccc(S(=O)(=O)N(CCCSC(C)=O)Cc2ccccc2)cc1` [Example 98] the figure was more than 10 µM; with `C[C@H](CS)NS(=O)(=O)c1ccc(OCC(F)(F)F)cc1OCC(F)(F)F` [Example 104], more than 10 µM. Turning to `CCCCCCCCCCCCCCCCOc1ccc(S(=O)(=O)N[C@H](C)CS)cc1` [Example 105], the IC50 was 3.5 µM.

Consider `C[C@H](CS)NS(=O)(=O)c1ccc(Oc2cccc(Cl)c2C#N)cc1` [Example 108], for which the IC50 was found to be 0.5 µM. Still for that read-out and setting: to `COc1ccc(S(=O)(=O)N[C@H](C)CS)c([N+](=O)[O-])c1` [Example 109] belongs more than 10 µM; to `C[C@H](CS)NS(=O)(=O)c1ccc(CNC(=O)c2ccccc2)s1` [Example 146], more than 10 µM. As to `C[C@H](CS)NS(=O)(=O)c1ccc(C(F)(F)F)cn1` [Example 148], the IC50 was more than 10 µM. Same read-out and setting: to `C[C@H](CS)NS(=O)(=O)c1cc(C(F)(F)F)n(C)n1` [Example 149] belongs more than 10 µM. Same read-out and setting: with `CSc1nccc(S(=O)(=O)N[C@H](C)CS)n1` [Example 150] the figure was 9 µM. For the molecule `C[C@H](CS)NS(=O)(=O)c1cc(Br)c(Cl)s1` [Example 152], the IC50 is 3 µM. Consider `C[C@H](CS)NS(=O)(=O)c1ccc(CNC(=O)c2ccc(Cl)cc2)s1` [Example 153], for which the IC50 is more than 10 µM.

With `CCc1cc(Br)ccc1S(=O)(=O)N[C@H](C)CS` [Example 195], the IC50 worked out at 0.464 µM. Still for that read-out and setting: to `C[C@H](CS)NS(=O)(=O)c1ccccc1C(F)(F)F` [Example 196] belongs more than 10 µM; to `COC(=O)c1ccccc1S(=O)(=O)N[C@H](C)CS` [Example 198], 2.3 µM. The same measure, in the same setting: to `C[C@H](CS)NS(=O)(=O)c1ccc(Br)cc1OC(F)(F)F` [Example 204] belongs more than 10 µM; to `C[C@H](CS)NS(=O)(=O)c1cccc2cccnc12` [Example 206], more than 10 µM; to `CCCCOc1cc(C(C)(C)CC(C)(C)C)ccc1S(=O)(=O)N[C@H](C)CS` [Example 207], more than 10 µM. For the molecule `CCCCOc1ccc(S(=O)(=O)N[C@@H](CS)C(=O)O)cc1` [Example 210], the IC50 is 1.32 µM. Consider `C[C@H](CS)NS(=O)(=O)c1cn(C)cn1` [Example 214], for which the IC50 was more than 10 µM. On the same count and under the same terms, with “N-(2-mercapto-1R-methylethyl)-2-(trifluoromethyoxy)-benzenesulfonamide [Example 77]” the figure was more than 10 µM; with “N-(2-mercapto-1R-methylethyl)-2-napthylenesulfonamide [Example 83]”, 1.15 µM; with “N-(2-mercapto-1R-methylethyl)-4-(n-butyl)benzenesulfonamide [Example 69]”, 0.175 µM.
